The source of these data is patent publication US12291501B2 (University of Florida Research Foundation, Inc., priority 2021, dated 2025).

What all share (assay type): cell-based
In assay [1] the target is T1, α9 nAChR (Homo sapiens, UniProt Q9UGM1).
T1 construct: expressed in transfected cells; host or cells: Xenopus laevis oocytes, injected with in vitro transcribed RNA
Nature of the assay: Two-electrode voltage-clamp, agonist concentration-response, α9 nAChR in Xenopus oocytes. To be noted: for EC50 / α9 Imax: peak currents, ± standard error of fit; for α9 Imax: relative to ACh (Imax = 1). From the text:
(§1) Electrophysiology: Xenopus oocytes were microinjected with RNAs to produce functional nAChR which were characterized by two-electrode voltage-clamp measurements. FIGS. 5A-7D present concentration-response curves for the new compounds evaluated with α7, α9, and α9α10 receptors. Table 1 presents the values for Imax and EC50 with these receptors and Table 2 summarizes inhibition data for the compounds with heteromeric nAChR.
(§2) Molecular Biology: Plasmid DNAs encoding the human α7 and heteromeric nAChR were obtained from Jon Lindstrom (University of Pennsylvania, Philadelphia, PA). Mouse muscle subunit clones were obtained from Jim Boulter (Salk Institute, La Jolla CA) and Paul Gardner (Dartmouth, Hanover NH). The human resistance-to-cholinesterase 3 ([…]) clone was obtained from Millet Treinin (Hebrew University, Jerusalem, Israel) and RNA co-injected with α7 to improve the level and speed of receptor expression without affecting their pharmacological properties. Plasmid DNA encoding the human α10 nAChR was obtained from J. Michael McIntosh. Plasmid DNA encoding the human α9 nAChR and the human receptor-associated protein of the synapse (RAPSYN) with codon optimization for expression in Xenopus laevis were obtained from Katrin Richter. RAPSYN RNA was co-injected with the α9 and α10 to improve expression (Richter et al., (2022) Front. Cell Neurosci. 16: 779081). After linearization and purification of the plasmid DNAs, RNAs were prepared using the mMessage mMachine in vitro RNA transcription kit (Ambion, Austin, TX). Frogs were maintained in the Animal Care Service facility of the University of Florida, and all procedures were approved by the University of Florida Institutional Animal Care and Use Committee (approval number 202002669). In brief, the animals were first anesthetized for 15-20 min in 1.5 l frog tank water containing 1 g of MS-222 buffered with sodium bicarbonate. Oocytes were obtained surgically from mature female Xenopus laevis (Nasco, Ft. Atkinson WI, USA) and treated with 1.4 mg/ml type 1 collagenase (Worthington Biochemicals, Freehold NJ, USA) for 2-4 h at rt in Ca2+-free Barth's solution (88 mM NaCl, 1 mM KCl, 2.38 mM NaHCO3, 0.82 mM MgSO4, 15 mM HEPES, and 12 mg/l tetracycline, pH 7.6) to remove the ovarian tissue and the follicular layers. Stage V oocytes were injected with 4-6 ng CHRNA7 RNA and 2-3 ng RIC3 RNA (2:1 ratio) in 50 nl water, or with 12 ng CHRNA9 RNA and 3 ng RAPSN RNA, or along with 12 ng CHRNA10 RNA in 50 nl water. Oocytes were maintained in Barth's solution containing 0.32 mM Ca(NO3)2 and 0.41 mM CaCl2, and recordings were conducted 2-20 days after injection.
(§3) Electrophysiology: Two-electrode voltage-clamp experiments were conducted using OpusXpress 6000A (Molecular Devices, Union City CA, USA). Both the voltage and current electrodes were filled with 3 M KCl. Oocytes were voltage-clamped at −60 mV at rt. The oocytes were perfused with Ringer's solution (115 mM NaCl, 2.5 mM KCl, 1.8 mM CaCl2, 10 mM HEPES, 1 μM atropine, pH 7.2) at 2 ml/min. […] Drug applications were 12 s in duration followed by 181 s washout periods.
(§4) The responses were calculated as both peak-current amplitudes and net charge. Data were collected at 50 Hz, filtered at 20 Hz, and analyzed by Clampfit (Molecular Devices) and Excel (Microsoft, Redmond, WA, United States). Data are expressed as means±SEM from at least five oocytes for each experiment and plotted with Kaleidagraph 4.5.2 (Abelbeck Software, Reading, PA, United States). Each episode of data acquisition was a total of 210 s and included an initial 30 s period used to define the baseline for the drug-evoked responses. After 30 s, drugs were applied, and the following 120 s were defined as the drug response period for analysis. […] The values for the curve fits were generated using the Levenberg-Marquardt algorithm to obtain the best Chi-Square fit to the Hill equation using the Kaleidagraph 4.5.2 plotting program. […]

Assay [2] deals with T2, α9α10 nAChR (Homo sapiens, UniProt Q9GZZ6+Q9UGM1).
T2 construct: expressed in transfected cells; host or cells: Xenopus laevis oocytes, injected with in vitro transcribed RNA
Nature of the assay: Two-electrode voltage-clamp, agonist concentration-response, α9α10 nAChR in Xenopus oocytes. To be noted: for EC50 / α9α10 Imax: peak currents, ± standard error of fit; for α9α10 Imax: relative to ACh (Imax = 1).
From the text: as §1, §2, §3, §4

Assay [3] has as its target T3, α7 nAChR (Homo sapiens, UniProt P36544).
T3 construct: expressed in transfected cells; host or cells: Xenopus laevis oocytes, injected with in vitro transcribed RNA
Nature of the assay: Two-electrode voltage-clamp, agonist concentration-response, α7 nAChR in Xenopus oocytes. To be noted: for EC50 / α7 Imax: net charge, ± standard error of fit; for α7 Imax: relative to ACh (Imax = 1).
From the text: as §1
(§5) Molecular Biology: Plasmid DNAs encoding the human α7 and heteromeric nAChR were obtained from Jon Lindstrom (University of Pennsylvania, Philadelphia, PA). Mouse muscle subunit clones were obtained from Jim Boulter (Salk Institute, La Jolla CA) and Paul Gardner (Dartmouth, Hanover NH). […] Plasmid DNA encoding the human α10 nAChR was obtained from J. Michael McIntosh. Plasmid DNA encoding the human α9 nAChR and the human receptor-associated protein of the synapse (RAPSYN) with codon optimization for expression in Xenopus laevis were obtained from Katrin Richter. […] After linearization and purification of the plasmid DNAs, RNAs were prepared using the mMessage mMachine in vitro RNA transcription kit (Ambion, Austin, TX). […] Oocytes were maintained in Barth's solution containing 0.32 mM Ca(NO3)2 and 0.41 mM CaCl2, and recordings were conducted 2-20 days after injection.
(§6) Electrophysiology: Two-electrode voltage-clamp experiments were conducted using OpusXpress 6000A (Molecular Devices, Union City CA, USA). Both the voltage and current electrodes were filled with 3 M KCl. Oocytes were voltage-clamped at −60 mV at rt.
(§7) The responses were calculated as both peak-current amplitudes and net charge. Data were collected at 50 Hz, filtered at 20 Hz, and analyzed by Clampfit (Molecular Devices) and Excel (Microsoft, Redmond, WA, United States). Data are expressed as means±SEM from at least five oocytes for each experiment and plotted with Kaleidagraph 4.5.2 (Abelbeck Software, Reading, PA, United States). Each episode of data acquisition was a total of 210 s and included an initial 30 s period used to define the baseline for the drug-evoked responses. After 30 s, drugs were applied, and the following 120 s were defined as the drug response period for analysis. […] The values for the curve fits were generated using the Levenberg-Marquardt algorithm to obtain the best Chi-Square fit to the Hill equation using the Kaleidagraph 4.5.2 plotting program. The errors in the tables are the calculated standard errors of the fit parameters based on the goodness of fit.

Assay [4] has as its target T3, α7 nAChR. Nature of the assay: α7 responses to drugs co-applied with the PAM PNU-120596 (silent agonism). To be noted: drug 30 μM + 10 μM PNU-120596; normalized to 30 μM ACh + 10 μM PNU-120596.
From the text: as §5, §6, §7

In assay [5] the target is T4, α3β4 nAChR (Homo sapiens, UniProt P30926+P32297).
T4 construct: expressed in transfected cells; host or cells: Xenopus laevis oocytes
Kind of assay: Inhibition of control ACh responses by co-application, α3β4 nAChR in oocytes. To be noted: 3 μM compound co-applied with ACh; fraction of control ACh response. On the procedure:
(§8) Initial profiling against heteromeric receptors: The test compounds for their ability to activate or inhibit other nAChR subtypes were evaluated. Agonist activity was evaluated by applying the compounds at 100 or 30 μM to human α4β2 and α3β4 as well as to mouse muscle α1β1εδ nAChR expressed in Xenopus oocytes. […] The inhibitory activity was generally low (Table 3).
as §2, §3, §7

Assay [6] deals with T5, α4β2 nAChR (Homo sapiens, UniProt P17787+P43681).
T5 construct: expressed in transfected cells; host or cells: Xenopus laevis oocytes
Kind of assay: Inhibition of control ACh responses by co-application, α4β2 nAChR in oocytes. To be noted: 3 μM compound co-applied with ACh; fraction of control ACh response. On the procedure: as §8, §2, §3, §7

Assay [7] addresses T6, α1β1εδ nAChR (Mus musculus, UniProt P02716+P04756+P09690+P20782).
T6 construct: expressed in transfected cells; host or cells: Xenopus laevis oocytes
Kind of assay: Inhibition of control ACh responses by co-application, muscle α1β1εδ nAChR in oocytes. To be noted: 3 μM compound co-applied with ACh; fraction of control ACh response. As to the method:
as §8, §2, §3, §7

“And” between values parts separate entries of the source, which are not always exact repeats. Equal entries are not always repeated.

T1 sequence (Q9UGM1 26-479 limits assumed): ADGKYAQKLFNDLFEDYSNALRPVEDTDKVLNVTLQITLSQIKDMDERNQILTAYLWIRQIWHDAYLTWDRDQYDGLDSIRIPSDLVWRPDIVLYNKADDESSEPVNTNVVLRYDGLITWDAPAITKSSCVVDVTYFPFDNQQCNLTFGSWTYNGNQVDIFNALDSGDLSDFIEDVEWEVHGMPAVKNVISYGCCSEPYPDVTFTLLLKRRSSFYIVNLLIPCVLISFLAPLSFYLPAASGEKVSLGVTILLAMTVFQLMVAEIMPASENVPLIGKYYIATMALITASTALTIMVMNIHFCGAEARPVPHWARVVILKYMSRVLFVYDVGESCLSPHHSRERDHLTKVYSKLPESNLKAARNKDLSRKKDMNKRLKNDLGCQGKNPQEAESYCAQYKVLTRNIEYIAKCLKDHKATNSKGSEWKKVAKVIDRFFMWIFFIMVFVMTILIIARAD
T2 sequence (Q9UGM1 26-479 limits assumed): as above
T2 sequence (Q9GZZ6 25-450): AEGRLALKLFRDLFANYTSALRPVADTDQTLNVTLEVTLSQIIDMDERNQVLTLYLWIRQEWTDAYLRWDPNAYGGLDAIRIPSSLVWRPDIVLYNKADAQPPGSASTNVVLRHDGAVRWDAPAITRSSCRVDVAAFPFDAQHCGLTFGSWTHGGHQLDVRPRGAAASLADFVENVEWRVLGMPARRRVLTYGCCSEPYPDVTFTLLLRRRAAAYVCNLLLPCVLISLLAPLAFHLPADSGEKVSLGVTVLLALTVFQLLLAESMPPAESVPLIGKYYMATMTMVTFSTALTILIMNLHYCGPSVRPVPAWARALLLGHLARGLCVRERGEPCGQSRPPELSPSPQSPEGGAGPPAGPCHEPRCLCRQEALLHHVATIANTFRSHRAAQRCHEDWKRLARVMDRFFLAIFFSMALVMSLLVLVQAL
T3 sequence (P36544 23-502): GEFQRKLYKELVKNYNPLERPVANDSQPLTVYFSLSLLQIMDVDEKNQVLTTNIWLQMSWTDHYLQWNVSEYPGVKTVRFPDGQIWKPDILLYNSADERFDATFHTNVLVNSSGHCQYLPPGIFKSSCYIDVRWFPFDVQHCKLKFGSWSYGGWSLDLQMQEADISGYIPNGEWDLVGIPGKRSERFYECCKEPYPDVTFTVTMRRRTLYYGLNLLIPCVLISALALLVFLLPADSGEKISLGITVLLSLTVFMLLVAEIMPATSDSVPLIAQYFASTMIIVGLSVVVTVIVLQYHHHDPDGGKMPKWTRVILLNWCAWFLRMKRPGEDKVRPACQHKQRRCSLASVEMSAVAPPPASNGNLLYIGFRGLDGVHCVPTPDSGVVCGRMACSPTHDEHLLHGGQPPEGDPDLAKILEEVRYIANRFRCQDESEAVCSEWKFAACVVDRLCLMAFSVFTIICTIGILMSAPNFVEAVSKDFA
T5 sequence (P43681 29-627 limits assumed): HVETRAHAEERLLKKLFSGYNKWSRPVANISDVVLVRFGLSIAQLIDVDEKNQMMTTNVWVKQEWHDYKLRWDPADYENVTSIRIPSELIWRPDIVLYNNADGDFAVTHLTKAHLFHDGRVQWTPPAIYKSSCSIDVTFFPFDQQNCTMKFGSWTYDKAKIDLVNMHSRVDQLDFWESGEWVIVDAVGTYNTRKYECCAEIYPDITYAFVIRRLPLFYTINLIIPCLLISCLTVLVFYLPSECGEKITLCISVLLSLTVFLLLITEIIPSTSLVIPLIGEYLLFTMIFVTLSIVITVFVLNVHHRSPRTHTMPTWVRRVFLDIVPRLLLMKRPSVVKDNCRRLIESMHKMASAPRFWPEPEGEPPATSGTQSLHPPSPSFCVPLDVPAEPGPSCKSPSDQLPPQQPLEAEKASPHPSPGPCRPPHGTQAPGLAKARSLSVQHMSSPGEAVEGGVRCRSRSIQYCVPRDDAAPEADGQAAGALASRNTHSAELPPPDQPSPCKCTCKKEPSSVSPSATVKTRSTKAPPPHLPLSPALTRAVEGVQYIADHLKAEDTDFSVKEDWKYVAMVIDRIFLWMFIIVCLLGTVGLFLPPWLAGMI
T5 sequence (P17787 26-502): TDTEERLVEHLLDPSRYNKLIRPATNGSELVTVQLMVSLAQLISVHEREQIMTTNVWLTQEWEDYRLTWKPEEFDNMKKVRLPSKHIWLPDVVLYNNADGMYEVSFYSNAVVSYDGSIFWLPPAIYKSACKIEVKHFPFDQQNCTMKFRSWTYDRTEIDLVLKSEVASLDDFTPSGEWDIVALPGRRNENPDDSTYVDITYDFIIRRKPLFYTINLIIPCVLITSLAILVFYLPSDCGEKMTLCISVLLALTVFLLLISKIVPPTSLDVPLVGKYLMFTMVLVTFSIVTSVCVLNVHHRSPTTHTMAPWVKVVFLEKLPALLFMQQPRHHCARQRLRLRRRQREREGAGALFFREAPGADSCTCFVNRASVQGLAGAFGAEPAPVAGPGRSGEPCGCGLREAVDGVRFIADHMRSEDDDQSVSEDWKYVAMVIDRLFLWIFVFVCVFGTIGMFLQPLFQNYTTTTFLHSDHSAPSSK
T6 sequence (P04756 21-457): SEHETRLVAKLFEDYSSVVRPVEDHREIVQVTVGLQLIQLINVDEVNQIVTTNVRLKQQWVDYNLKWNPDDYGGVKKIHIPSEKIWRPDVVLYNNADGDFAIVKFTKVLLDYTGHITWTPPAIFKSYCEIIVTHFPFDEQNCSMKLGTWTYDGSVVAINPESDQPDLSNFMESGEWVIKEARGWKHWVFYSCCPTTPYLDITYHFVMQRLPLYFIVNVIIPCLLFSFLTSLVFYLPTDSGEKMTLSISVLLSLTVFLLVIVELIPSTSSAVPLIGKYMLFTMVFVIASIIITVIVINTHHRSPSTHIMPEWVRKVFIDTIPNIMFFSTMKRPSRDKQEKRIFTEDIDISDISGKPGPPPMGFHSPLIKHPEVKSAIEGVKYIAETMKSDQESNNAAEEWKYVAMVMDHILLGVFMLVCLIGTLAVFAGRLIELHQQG
T6 sequence (P09690 24-501): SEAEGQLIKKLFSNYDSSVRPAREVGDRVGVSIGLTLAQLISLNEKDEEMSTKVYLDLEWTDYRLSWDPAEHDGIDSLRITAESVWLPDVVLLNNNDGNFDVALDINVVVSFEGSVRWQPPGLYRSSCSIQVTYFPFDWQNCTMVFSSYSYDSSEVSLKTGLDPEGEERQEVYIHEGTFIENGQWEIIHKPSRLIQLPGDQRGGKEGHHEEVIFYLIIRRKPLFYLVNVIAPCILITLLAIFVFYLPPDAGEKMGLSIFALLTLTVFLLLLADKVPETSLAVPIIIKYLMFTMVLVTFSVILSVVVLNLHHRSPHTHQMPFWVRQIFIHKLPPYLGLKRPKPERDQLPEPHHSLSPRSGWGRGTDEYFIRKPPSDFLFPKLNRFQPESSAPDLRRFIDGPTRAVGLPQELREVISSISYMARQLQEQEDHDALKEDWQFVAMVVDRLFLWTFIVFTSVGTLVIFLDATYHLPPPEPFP
T6 sequence (P20782 21-493): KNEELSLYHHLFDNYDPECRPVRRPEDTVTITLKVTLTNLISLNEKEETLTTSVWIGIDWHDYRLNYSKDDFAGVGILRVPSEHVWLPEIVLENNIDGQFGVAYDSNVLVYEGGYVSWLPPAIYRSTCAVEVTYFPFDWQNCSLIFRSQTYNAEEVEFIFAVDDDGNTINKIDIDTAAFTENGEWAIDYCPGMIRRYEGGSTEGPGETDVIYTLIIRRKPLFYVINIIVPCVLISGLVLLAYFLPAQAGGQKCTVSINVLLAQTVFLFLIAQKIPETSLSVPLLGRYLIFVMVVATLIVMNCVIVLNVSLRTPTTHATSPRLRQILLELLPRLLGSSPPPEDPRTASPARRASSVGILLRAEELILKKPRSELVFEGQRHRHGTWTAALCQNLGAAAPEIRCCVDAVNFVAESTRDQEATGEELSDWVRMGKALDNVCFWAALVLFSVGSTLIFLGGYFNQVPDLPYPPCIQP
T6 sequence (P02716 25-520): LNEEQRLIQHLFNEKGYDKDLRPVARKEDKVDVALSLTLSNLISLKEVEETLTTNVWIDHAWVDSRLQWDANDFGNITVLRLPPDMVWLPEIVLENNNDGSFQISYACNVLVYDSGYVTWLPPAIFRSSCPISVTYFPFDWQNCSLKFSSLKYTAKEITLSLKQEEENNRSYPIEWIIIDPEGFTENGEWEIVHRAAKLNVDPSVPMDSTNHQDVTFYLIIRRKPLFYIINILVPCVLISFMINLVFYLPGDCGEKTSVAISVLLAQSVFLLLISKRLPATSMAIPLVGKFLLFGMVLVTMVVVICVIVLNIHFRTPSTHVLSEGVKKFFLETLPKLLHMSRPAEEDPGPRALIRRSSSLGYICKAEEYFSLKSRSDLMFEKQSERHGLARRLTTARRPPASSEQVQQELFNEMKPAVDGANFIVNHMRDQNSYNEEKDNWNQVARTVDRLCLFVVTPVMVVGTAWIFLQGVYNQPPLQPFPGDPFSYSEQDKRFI

In the case of `CC[N+]1(CC)CCN(c2ccc(C(N)=O)cc2)CC1` [Compound 1, 4-(4-carbamoylphenyI)-1,1-diethylpiperazin-1-ium iodide, reference compound], in assay [1], the “Agonist character / efficacy at α9” value is listed as “full α9 agonist”, the EC50 is 1.15 ± 0.24 µM and the “α9 Imax” value was 0.80 ± 0.03. Further, the “Fold greater potency for α9 than for α7” value in assay [1] (ratio of EC50 values) worked out at 66 fold. Also, in assay [2], the midpoint of the response, the EC50, lay at 13 ± 11 µM and the “α9α10 Imax” value was 1.19 ± 0.25. For the same compound, in assay [3], the EC50 was 76 ± 2 µM; the “α7 Imax” value was 0.34 ± 0.01 and 0.34. Moreover, in assay [4], the “Response co-applied with PNU-120596, normalized to ACh co-applied with PNU-120596” value worked out at 0.18.

Regarding `CC[N+]1(CC)CCN(c2ccc(C(=O)N3CCCC3)cc2)CC1.[I-]` [Compound 3a, 1,1-diethyl-4-(4-(pyrrolidine-1-carbonyl)phenyl)piperazin-1-ium iodide], in assay [1], the “Agonist character / efficacy at α9” value was “moderate efficacy”, the concentration giving a half-maximal response (EC50) was determined as 45 ± 22 µM and the “α9 Imax” value is listed as 0.69 ± 0.09. In addition, in assay [2], the concentration giving a half-maximal response (EC50) was found to be 15 ± 3.1 µM and the “α9α10 Imax” value turned out to be 0.56 ± 0.04. In addition, in assay [3], the “Agonist character / efficacy at α7” value is “lost agonism”; a half-maximal response (EC50) required 500 ± 500 µM; the “α7 Imax” value was 0.06 ± 0.11 and 0.06. In addition, in assay [4], the “Response co-applied with PNU-120596, normalized to ACh co-applied with PNU-120596” value came to 0.01. Also, the “Effect of co-application on the control ACh responses, α3β4” value (from here on “Effect of co-application … α3β4”) in assay [5] is 0.849 ± 0.034. The “Effect of co-application on the control ACh responses, α4β2” value (shortened to “Effect of co-application … α4β2”) in assay [6] was found to be 0.919 ± 0.022. The “Effect of co-application on the control ACh responses, α1β1εδ” value (“Effect of co-application … α1β1εδ” below) in assay [7] was found to be 0.541 ± 0.048.

Consider `CCCNC(=O)c1ccc(N2CC[N+](CC)(CC)CC2)cc1.[I-]` [Compound 3b, 1,1-diethyl-4-(4-(propylcarbamoyl)phenyl)piperazin-1-ium iodide], for which, in assay [1], a half-maximal response (EC50) required 9 ± 6 µM and the “α9 Imax” value is 1.13 ± 0.15. Also, in assay [2], the concentration giving a half-maximal response (EC50) was 11 ± 6 µM and the “α9α10 Imax” value is given as 0.79 ± 0.13. In assay [3], the EC50 was found to be 280 ± 240 µM; the “α7 Imax” value is 0.38 ± 0.09 and 0.38. The “Response co-applied with PNU-120596, normalized to ACh co-applied with PNU-120596” value in assay [4] came out at 0.19. For the same compound, the “Effect of co-application … α3β4” value in assay [5] is given as 0.650 ± 0.039. For the same compound, the “Effect of co-application … α4β2” value in assay [6] was found to be 0.946 ± 0.032. Moreover, the “Effect of co-application … α1β1εδ” value in assay [7] was found to be 0.709 ± 0.086.

For the compound `CC[N+]1(CC)CCN(c2ccc(C(=O)Nc3ccccn3)cc2)CC1.[I-]` [Compound 3c, 1,1-diethyl-4-(4-(pyridin-2-ylcarbamoyl)phenyl)piperazin-1-ium iodide], in assay [1], the EC50 was 18 ± 36 µM and the “α9 Imax” value is given as 1.18 ± 0.39. In assay [2], the “Agonist character / efficacy at α9α10” value is on record as “efficacious agonist”, a half-maximal response (EC50) required 1.18 ± 0.26 µM and the “α9α10 Imax” value was determined as 0.94 ± 0.04. Further, the “Fold better potency for α9α10 relative to α9 homomers” value in assay [2] (ratio of EC50 values) is given as 10 fold. Further, in assay [3], the “Agonist character / efficacy at α7” value is “partial agonists”; the response was half-maximal at 26 ± 20 µM (EC50); the “α7 Imax” value was 0.46 ± 0.08 and 0.46. Further, the “Response co-applied with PNU-120596, normalized to ACh co-applied with PNU-120596” value in assay [4] turned out to be 0.12. In addition, the “Effect of co-application … α3β4” value in assay [5] came to 0.789 ± 0.057. For the same compound, the “Effect of co-application … α4β2” value in assay [6] was 0.697 ± 0.027. In assay [7], the “Effect of co-application … α1β1εδ” value is 0.506 ± 0.082.

As for `CC[N+]1(CC)CCN(c2ccc(C(=O)Nc3cccc(C)c3)cc2)CC1.[I-]` [Compound 3d, 1,1-diethyl-4-(4-(m-tolylcarbamoyl)phenyl)piperazin-1-ium iodide], in assay [1], the EC50 was 1.28 ± 0.62 µM and the “α9 Imax” value is 1.25 ± 0.14. Moreover, in assay [2], the response was half-maximal at 0.61 ± 0.08 µM (EC50) and the “α9α10 Imax” value was 1.12 ± 0.03. Moreover, in assay [3], the “Agonist character / efficacy at α7” value was “partial agonists”; the EC50 was 1.3 ± 0.1 µM; the “α7 Imax” value is 0.60 ± 0.02 and 0.6. In addition, the “Response co-applied with PNU-120596, normalized to ACh co-applied with PNU-120596” value in assay [4] was determined as 0.17. Also, the “Effect of co-application … α3β4” value in assay [5] was determined as 1.039 ± 0.015. For the same compound, the “Effect of co-application … α4β2” value in assay [6] is 0.807 ± 0.048. The “Effect of co-application … α1β1εδ” value in assay [7] came to 0.555 ± 0.060.
